# Read-outs that look alike come from different tables or passages of the source.
# How the values were obtained:
# FKBP12 = FKBP12 (Homo sapiens, UniProt P62942); test: competitive fluorescence polarization assay, binding to FKBP12
# Procedure: (§1) All macrocyclic compounds were tested in a competitive fluorescence polarization assay for binding towards FKBP51 as well as the homologs FKBP12, FKBP12.6 and FKBP52 (Table 1).
# (§2) Example 8: […] of the Macrocyclic FKBP51 Ligands by SPPS
# FKBP51FK1 = molecular target: T1, FKBP51FK1 (Homo sapiens, UniProt Q13451); test: biochemical
# T1 sequence (Q13451 42-130 limits assumed): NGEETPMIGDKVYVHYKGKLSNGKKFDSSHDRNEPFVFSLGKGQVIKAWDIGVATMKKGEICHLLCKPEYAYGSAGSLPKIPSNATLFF
# Procedure: as §1, §2
# FKBP12.6 = FKBP12.6 (Homo sapiens, UniProt P68106); test: competitive fluorescence polarization assay, binding to FKBP12.6
# Procedure: as §1, §2
# [1] = Table 1, competitive Fluorescence Polarization Assay, read-out: Ki [nM] FKBP12
# [2] = Ki [nM] FKBP51FK1, Table 1, competitive Fluorescence Polarization Assay
# [3] = Table 1, competitive Fluorescence Polarization Assay, read-out: Ki [nM] FKBP12.6
# Sequence of FKBP12.6 (P68106 whole entry): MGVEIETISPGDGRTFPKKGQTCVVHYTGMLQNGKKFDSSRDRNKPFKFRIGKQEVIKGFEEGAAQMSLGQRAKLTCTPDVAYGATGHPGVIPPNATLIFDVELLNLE
# Sequence of FKBP12 (P62942 whole entry): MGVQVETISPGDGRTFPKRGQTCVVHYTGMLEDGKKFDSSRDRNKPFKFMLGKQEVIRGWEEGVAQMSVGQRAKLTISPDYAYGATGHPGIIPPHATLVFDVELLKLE
Compound,Ki (FKBP12; [1]) [nM],Ki (FKBP51FK1; [2]) [nM],Ki (FKBP12.6; [3]) [nM],further results
COc1ccc(CC[C@H]2OC(=O)[C@@H]3CCCCN3C(=O)[C@@H](C3CCCCC3)c3cc(OC)c(c(OC)c3)OC/C=C/COc3cccc2c3)cc1OC [31-(E)],289,56,263,–
COc1ccc(CC[C@H]2OC(=O)[C@@H]3CCCCN3C(=O)[C@@H](C3CCCCC3)c3cc(OC)c(c(OC)c3)OC/C=C\COc3cccc2c3)cc1OC [31-(Z)],261,70,328,–
COc1ccc(CC[C@H]2OC(=O)[C@@H]3CCCCN3C(=O)[C@@H](C3CCCCC3)c3cc(OC)c(c(OC)c3)OCC/C=C\COc3cccc2c3)cc1OC [32-(Z)],189,80,237,–
COc1ccc(CC[C@H]2OC(=O)[C@@H]3CCCCN3C(=O)[C@@H](C3CCCCC3)c3cc(OC)c(c(OC)c3)OCCOC/C=C/COc3cccc2c3)cc1OC [33-(E)],534,–,361,–
COc1ccc(CC[C@H]2OC(=O)[C@@H]3CCCCN3C(=O)[C@@H](C3CCCCC3)c3cc(OC)c(c(OC)c3)OCCOC/C=C\COc3cccc2c3)cc1OC [33-(Z)],309,–,186,–
COc1ccc(CCC2OC(=O)C3CCCCN3C(=O)C(C3CCCCC3)c3cc(OC)c(OC)c(c3)OC/C=C/COc3cccc2c3)cc1OC (stereo not shown) [35-(E)],–,–,–,"Ki (FKBP12; Table 1, unit μM printed in the cell, read-out: Ki FKBP12): > 100000 nM; Ki (FKBP51FK1; Ki FKBP51FK1, Table 1, unit μM printed in the cell): > 5000 nM; Ki (FKBP12.6; Table 1, unit μM printed in the cell, read-out: Ki FKBP12.6): > 100000 nM"
COc1ccc(CCC2OC(=O)C3CCCCN3C(=O)C(C3CCCCC3)c3cc(OC)c(OC)c(c3)OC/C=C\COc3cccc2c3)cc1OC (stereo not shown) [35-(Z)],173,93,192,–
COc1ccc(CC[C@H]2OC(=O)[C@@H]3CCCCN3C(=O)[C@@H](C3CCCCC3)c3cc(OC)c(OC)c(c3)OCC/C=C\COc3cccc2c3)cc1OC [36-(Z)],118,77,96,–
COc1ccc(CC[C@H]2OC(=O)[C@@H]3CCCCN3C(=O)[C@@H](C3CCCCC3)c3cc(OC)c(OC)c(c3)OCCOC/C=C/COc3cccc2c3)cc1OC [37-(E)],182,46,74,–
COc1ccc(CC[C@H]2OC(=O)[C@@H]3CCCCN3C(=O)[C@@H](C3CCCCC3)c3cc(OC)c(OC)c(c3)OCCOC/C=C\COc3cccc2c3)cc1OC [37-(Z)],270,113,190,–
COc1ccc(CC[C@H]2OC(=O)[C@@H]3CCCCN3C(=O)[C@@H](C3CCCCC3)c3cc(OC)c(OC)c(c3)OCCCOC/C=C/COc3cccc2c3)cc1OC [38-(E)],269,93,144,–
COc1ccc(CC[C@H]2OC(=O)[C@@H]3CCCCN3C(=O)[C@@H](C3CCCCC3)c3cc(OC)c(c(OC)c3)OCCCCOc3cccc2c3)cc1OC [Compound 39],159,53,191,–
COc1ccc(CC[C@H]2OC(=O)[C@@H]3CCCCN3C(=O)[C@@H](C3CCCCC3)c3cc(OC)c(c(OC)c3)OCCCCCOc3cccc2c3)cc1OC [Compound 40],204,102,198,–
"COc1ccc(CC[C@H]2OC(=O)[C@@H]3CCCCN3C(=O)[C@@H](C3CCCCC3)NC(=O)[C@@H](C)NC(=O)COc3cccc2c3)cc1OC [Compound 84, (2R,5S,12R,15R)-12-cyclohexyl-2-[2-(3,4-dimethoxyphenyl)ethyl]-15-methyl-3,19-dioxa-10,13,16-triazatricyclo[18.3.1.0^5,10]tetracosa-1(24),20,22-triene-4,11,14,17-tetrone]",–,–,–,"Ki (FKBP12; Table 2, read-out: FKBP12 Ki): > 80000 nM; Ki (FKBP12.6; Table 2, read-out: FKBP12.6 Ki): > 80000 nM"
"COc1ccc(CC[C@H]2OC(=O)[C@@H]3CCCCN3C(=O)[C@@H](C3CCCCC3)NC(=O)C3(CC3)NC(=O)COc3cccc2c3)cc1OC [Compound 86, (2′R,5′S,12′R)-12′-cyclohexyl-2′-[2-(3,4-dimethoxyphenyl)ethyl]-3′,19′-dioxa-10′,13′,16′-triazaspiro[cyclopropane-1,15′-tricyclo[18.3.1.0^5,10]tetracosane]-1′(24′),20′,22′-triene-4′,11′,14′,17′-tetrone]",–,–,–,"Ki (FKBP12; Table 2, read-out: FKBP12 Ki): > 80000 nM; Ki (FKBP12.6; Table 2, read-out: FKBP12.6 Ki): > 80000 nM"
"COc1ccc(CC[C@H]2OC(=O)[C@@H]3CCCCN3C(=O)[C@@H](C3CCCCC3)NC(=O)[C@H]3CCCN3C(=O)COc3cccc2c3)cc1OC [Compound 90, (9R,12R,19S,22R)-12-cyclohexyl-22-[2-(3,4-dimethoxyphenyl)ethyl]-2,21-dioxa-5,11,14-triazatetracyclo[21.3.1.0^5,9.0^14,19]heptacosa-1(26),23(27),24-triene-4,10,13,20-tetrone]",–,–,–,"Ki (FKBP12; Table 2, read-out: FKBP12 Ki): > 80000 nM; Ki (FKBP12.6; Table 2, read-out: FKBP12.6 Ki): > 80000 nM"
"COc1ccc(CC[C@H]2OC(=O)[C@@H]3CCCCN3C(=O)[C@@H](C3CCCCC3)NC(=O)CCCNC(=O)COc3cccc2c3)cc1OC [Compound 95, (2R,5S,12R)-12-cyclohexyl-2-[2-(3,4-dimethoxyphenyl)ethyl]-3,21-dioxa-10,13,18-triazatricyclo[20.3.1.0^5,10]hexacosa-1(26),22,24-triene-4,11,14,19-tetrone]",–,–,–,affinity (in words) (FKBP51FK1): no binding
"COc1cc2cc(c1)[C@@H](CCc1ccc(OC)c(OC)c1)OC(=O)[C@@H]1CCCCN1C(=O)[C@@H](C1CCCCC1)NC(=O)C(C)(C)NC(=O)CO2 [Compound 104, (2R,5S,12R)-12-cyclohexyl-2-[2-(3,4-dimethoxyphenyl)ethyl]-22-methoxy-15,15-dimethyl-3,19-dioxa-10,13,16-triazatricyclo[18.3.1.0^5,10]tetracosa-1(24),20,22-triene-4,11,14,17-tetrone]",–,–,–,"affinity (in words) (FKBP51FK1): bound similarly to the glycine derivative 83; Ki (FKBP51FK1; FKBP51FK1 Ki [μM], Table 2, [a] standard error from three, [c] error from two independent measurements): 390 nM"

# More lines, main results first:
Ki (FKBP12; [1]) [nM],Ki (FKBP51FK1; [2]) [nM],Ki (FKBP12.6; [3]) [nM],Compound,further results
97,11,83,COc1ccc(CC[C@H]2OC(=O)[C@@H]3CCCCN3C(=O)[C@@H](C3CCCCC3)c3cc(OC)c(c(OC)c3)OCC(O)C(O)COc3cccc2c3)cc1OC (mixture of isomers) [Compound 63],–
23,4,10,"COc1ccc(CCC2OC(=O)C3CCCCN3C(=O)C(C3CCCCC3)c3cc(OC)c(OC)c(c3)OCC(O)C(O)COc3cccc2c3)cc1OC (single isomer, unassigned) [Compound 64a]",–
34,13,17,"COc1ccc(CCC2OC(=O)C3CCCCN3C(=O)C(C3CCCCC3)c3cc(OC)c(OC)c(c3)OCC(O)C(O)COc3cccc2c3)cc1OC (single isomer, unassigned) [Compound 64b]",–
449,118,230,COc1ccc(CC[C@H]2OC(=O)[C@@H]3CCCCN3C(=O)[C@@H](C3CCCCC3)c3cc(OC)c(c(OC)c3)OCCOCCCCOc3cccc2c3)cc1OC [Compound 41],–
92,30,62,COc1ccc(CC[C@H]2OC(=O)[C@@H]3CCCCN3C(=O)[C@@H](C3CCCCC3)c3cc(OC)c(OC)c(c3)OCCCCOc3cccc2c3)cc1OC [Compound 43],–
88,43,65,COc1ccc(CC[C@H]2OC(=O)[C@@H]3CCCCN3C(=O)[C@@H](C3CCCCC3)c3cc(OC)c(OC)c(c3)OCCCCCOc3cccc2c3)cc1OC [Compound 44],–
123,48,84,COc1ccc(CC[C@H]2OC(=O)[C@@H]3CCCCN3C(=O)[C@@H](C3CCCCC3)c3cc(OC)c(OC)c(c3)OCCOCCCCOc3cccc2c3)cc1OC [Compound 45],–
449,80,116,COc1ccc(CC[C@H]2OC(=O)[C@@H]3CCCCN3C(=O)[C@@H](C3CCCCC3)c3cc(OC)c(OC)c(c3)OCCCOCCCCOc3cccc2c3)cc1OC [Compound 46],–
